Measurements from US20230399341A1, “7-PHENYL SUBSTITUTED 2-AMINOQUINAZOLINE INHIBITORS OF HPK1” (MERCK SHARP & DOHME LLC, priority 2020, published 2023).

Target: T1, Human HPK1, catalytic domain (Homo sapiens, UniProt Q92918)
T1 sequence (Q92918 1-346): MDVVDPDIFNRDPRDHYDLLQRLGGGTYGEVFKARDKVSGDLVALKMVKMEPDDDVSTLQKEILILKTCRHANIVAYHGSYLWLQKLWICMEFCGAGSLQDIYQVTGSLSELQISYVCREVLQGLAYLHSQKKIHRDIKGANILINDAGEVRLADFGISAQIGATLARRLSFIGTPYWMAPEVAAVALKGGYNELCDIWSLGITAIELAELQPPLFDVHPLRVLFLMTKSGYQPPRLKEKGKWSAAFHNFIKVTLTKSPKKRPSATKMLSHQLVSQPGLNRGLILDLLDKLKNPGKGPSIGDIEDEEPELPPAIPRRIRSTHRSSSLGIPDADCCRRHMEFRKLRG
Experiment: HPK1-SLP76 TR-FRET Assay
Format: biochemical
Conditions: 75 pM HPK1, ATP 10 uM, SLP76 10 nM, 30 min pre-incubation, 60 min reaction

| IC50 [nM] | SMILES |
| --- | --- |
| 70.5 | Cc1c(-c2c(F)c(N)c3cnc(Nc4ccc(CC(C)(C)O)cc4)nc3c2Cl)cnc2c1NCCO2 [Compound 2-167, 1-(4-{[5-amino-8-chloro-6-fluoro-7-(8-methyl-2,3-dihydro-1H-pyrido[2,3-b][1,4]oxazin-7-yl)quinazolin-2-yl]amino}phenyl)-2-methylpropan-2-ol] |
| 0.103 | Cc1c(-c2cc3nc(Nc4ccc(CS(C)(=O)=O)cc4)ncc3c(N)c2F)cnc2c1NCC(C)(C)O2 [Compound 2-165, 6-fluoro-N~2~-{4-[(methylsulfonyl)methyl]phenyl}-7-(3,3,8-trimethyl-2,3-dihydro-1H-pyrido[2,3-b][1,4]oxazin-7-yl)quinazoline-2,5-diamine] |
| 531 | COc1cc2c(cc1Nc1ncc3ccc(NCC4CC(=O)N(C)C4)cc3n1)CN(C)CC2 (stereo in doubt) [Compound 3-48, (4S)-4-[({2-[(6-methoxy-2-meth-yl-1,2,3,4-tetrahydroisoquinolin-7-yl)amino]quinazolin-7-yl}-amino)methyl]-1-methylpyrrol-idin-2-one] |
| 4.17 | COc1cc2c(cc1Nc1ncc3ccc(Nc4cc(S(C)(=O)=O)ccc4F)cc3n1)CN(C)CC2 [Compound 3-36, N~7~-[2-fluoro-5-(methyl-sulfonyl)phenyl]-N~2~-(6-methoxy-2-methyl-1,2,3,4-tetra-hydroisoquinolin-7-yl)quinaz-oline-2,7-diamine] |
| 15.2 | COc1cc2c(cc1Nc1ncc3ccc(OCc4ccc(N5CCNCC5)nc4)cc3n1)CN(C)CC2 [Compound 4-1, N-(6-methoxy-2-methyl-1,2,3,4-tetrahydroisoquin-olin-7-yl)-7-{[6-(piperazin-1-yl)pyridin-3-yl]methoxy}-quinazolin-2-amine] |
| 369 | COc1cc2c(cc1Nc1ncc3ccc(NC4CCN(C(C)=O)CC4)cc3n1)CN(C)CC2 [Compound 3-38, 1-[4-({2-[(6-methoxy-2-methyl-1,2,3,4-tetrahydroisoquinolin-7-yl)amino]quinazolin-7-yl}-amino)piperidin-1-yl]ethan-1-one] |
| 662 | COc1cc2c(cc1Nc1ncc3ccc([C@H]4CC[C@H](N)CC4)cc3n1)CN(C)CC2 [Compound 5-1, 7-((1r,4r)-4-aminocyclohexyl)-N-(6-methoxy-2-methyl-1,2,3,4-tetrahydroisoquinolin-7-yl)quinazolin-2-amine] |

Continued, compound first:

| SMILES | IC50 [nM] |
| --- | --- |
| COc1cc(C2CCN(C)C2=O)ccc1Nc1ncc2c(N)c(F)c(-c3cnc4c(c3C)NCCO4)cc2n1 (single isomer, unassigned) [Compound 2-57, (R or S)-3-(4-{[5-amino-6-fluoro-7-(8-methyl-2,3-dihydro-1H-pyrido[2,3-b][1,4]oxazin-7-ylquinazolin-2-yl]amino}-3-methoxyphenyl)-1-methylpyrrolidin-2-one] | 0.905 |
| CN1Cc2cc(Nc3ncc4c(N)c(F)c(-c5cnc6c(c5Cl)NCCO6)cc4n3)ccc2C2(CC2)C1 [Compound 2-152, 7-(8-chloro-2,3-dihydro-1H-pyrido[2,3-b][1,4]oxazin-7-yl)-6-fluoro-N~2~-(2′-methyl-2′,3′-dihydro-1′H-spiro[cyclopropane-1,4′-isoquinolin]-7′-yl)quinazoline-2,5-diamine] | 0.0714 |
| Cc1c(-c2cc3nc(Nc4ccc(CS(C)(=O)=O)c(F)c4)ncc3c(N)c2F)cnc2c1NCCO2 [Compound 2-114, 6-fluoro-N~2~-{3-fluoro-4-[(methanesulfonyl)methyl]phenyl}-7-(8-methyl-2,3-dihydro-1H-pyrido[2,3-b][1,4]oxazin-7-yl)quinazoline-2,5-diamine] | 0.0654 |
| COc1cc2c(cc1Nc1ncc3ccc(-c4cccc(N)c4C)cc3n1)CNCC2 [Compound 1-31, 7-(3-amino-2-methylphenyl)-N-(6-methoxy-1,2,3,4-tetrahydroisoquinolin-7-yl)quinazolin-2-amine] | 204 |
| Cc1c(-c2cc3nc(Nc4cccc(S(=O)(=O)NC(C)(C)C)c4)ncc3c(N)c2F)cnc2c1NCCO2 [Compound 2-33, 3-{[5-amino-6-fluoro-7-(8-methyl-2,3-dihydro-1H-pyrido[2,3-b][1,4]oxazin-7-yl)quinazolin-2-yl]amino}-N-tert-butylbenzene-1-sulfonamide] | 0.186 |
| COc1cc2c(cc1Nc1ncc3ccc(-c4ccc5c(c4)CCN5)cc3n1)CNCC2 [Compound 1-87, 7-(2,3-dihydro-1H-indol-5-yl)-N-(6-methoxy-1,2,3,4-tetrahydroisoquinolin-7-yl)quinazolin-2-amine] | 49.2 |
| COc1cc2c(cc1Nc1ncc3ccc(-c4cccc(S(=O)(=O)N5CCOCC5)c4)cc3n1)CNCC2 [Compound 1-77, N-(6-methoxy-1,2,3,4-tetrahydroisoquinolin-7-yl)-7-{3-[(morpholin-4-yl)sulfonyl]phenyl}quinazo-lin-2-amine] | 24.7 |
| Cc1c(-c2cc3nc(Nc4ccc5c(c4)CN(C)CC5)ncc3c(N)c2F)cnc2cc[nH]c12 [Compound 2-130, 6-fluoro-7-(7-methyl-1H-pyrrolo[3,2-b]pyridin-6-yl)-N~2~-(2-methyl-1,2,3,4-tetrahydroisoquinolin-7-yl)quinazoline-2,5-diamine] | 0.103 |
| Cc1c(-c2cc3nc(Nc4ccc5c(c4)C4CC5CN4C)ncc3c(N)c2F)cnc2c1NCCO2 (racemic) [Compound 2-79, (R,S and S,R)-6-fluoro-N2-(2-methyl-1,2,3,4-tetrahydro-1,4-methanoisoquinolin-7-yl)-7-(8-methyl-2,3-dihydro-1H-pyrido[2,3-b][1,4]oxazin-7-yl)quinazoline-2,5-diamine] | 0.0305 |
| Cc1c(-c2cc3nc(Nc4ccc(CC(=O)N(C)C)cc4)ncc3cc2F)cnc2c1NCCO2 [Compound 1-132, 2-(4-{[6-fluoro-7-(8-methyl-2,3-dihydro-1H-pyrido[2,3-b][1,4]oxazin-7-yl)quinazolin-2-yl]amino}phenyl)-N,N-dimethylacetamide] | 0.132 |
| Cc1c(-c2cc3nc(Nc4cnc5c(c4)CN(C)CC5)ncc3cc2F)cnc2c1NCCO2 [Compound 1-135, 6-fluoro-7-(8-methyl-2,3-dihydro-1H-pyrido[2,3-b][1,4]oxazin-7-yl)-N-(6-methyl-5,6,7,8-tetrahydro-1,6-naphthyridin-3-yl)quinazolin-2-amine] | 0.482 |
| COc1cncc(-c2ccc3cnc(Nc4cc5c(cc4OC)CCNC5)nc3c2)c1 [Compound 1-44, 7-(5-methoxypyridin-3-yl)-N-(6-methoxy-1,2,3,4-tetrahydroisoquinolin-7-yl)quinazolin-2-amine] | 9.45 |
| COc1cc2c(cc1Nc1ncc3c(N)c(F)c(-c4cnc5c(c4C)NCCO5)c(Cl)c3n1)CN(C)CC21CC1 (single isomer, unassigned) [Compound 2-163, 8-chloro-6-fluoro-N~2~- (6′-methoxy-2′-methyl-2′,3′-dihydro-1′H-spiro[cyclopropane-1,4′-isoquinolin]-7′-yl)-7-(8-methyl-2,3-dihydro-1H-pyrido[2,3-b][1,4]oxazin-7-yl)quinazoline-2,5-diamine] | 0.0588 |
| CCS(=O)(=O)Cc1ccc(Nc2ncc3c(N)c(F)c(-c4cnc5c(c4C)NCCO5)c(Cl)c3n2)cc1 [Compound 2-134] | 57.7 |
| Cc1c(-c2c(F)c(N)c3cnc(Nc4ccc(CS(C)(=O)=O)cc4F)nc3c2Cl)cnc2c1NCCO2 (single isomer, unassigned) [Compound 2-131, 8-chloro-6-fluoro-N2-(2-fluoro-4-((methylsulfonyl)methyl)phenyl)-7-(8-methyl-2,3-dihydro-1H-pyrido[2,3-b][1,4]oxazin-7-yl)quinazoline-2,5-diamine] | 0.126 |
